The structures appear in SMILES notation. Active and inactive are the calls of the source. No cut-off for these calls is given here.

The test system of data set [1] is HUVEC. As to the kind of experiment: Antiinvasive activity in HUVEC assessed as inhibition of VEGF-induced cell invasion at 25 uM by crystal violet staining based matrigel invasion chamber assay. In kind it is functional. Particulars: Homo sapiens.
In data set [2] the test system is HUVEC. As to the kind of experiment: Antiangiogenic activity in HUVEC assessed as inhibition of VEGF-induced capillary tube formation by matrigel-based microscopic analysis. Particulars: Homo sapiens. Type of data set: functional, cell-based.
The subject of data set [3] is HUVEC. As to the kind of experiment: Cytotoxicity against VEGF-stimulated HUVEC at 100 uM after 24 hrs by EZ-Cytox cell viability assay. In kind it is cell-based. Particulars: human.
Data set [4] deals with HUVEC. As to the kind of experiment: Down regulation of VE-cadherin expression in VEGF-stimulated HUVEC at 10 to 50 uM after 6 hrs by Western blot analysis. Type of data set: functional, cell-based. The following applies: Homo sapiens. In general terms: Immunoblotting shows a protein as a band on a membrane.
The target of data set [5] is Vascular endothelial growth factor receptor 2 (Homo sapiens) (UniProt P35968). As to the kind of experiment: Inhibition of VEGFR2 phosphorylation in VEGF-stimulated HUVEC at 10 to 50 uM after 6 hrs by Western blot analysis. Type of data set: cell-based.
Chain of Vascular endothelial growth factor receptor 2 (Homo sapiens) (P35968 whole entry): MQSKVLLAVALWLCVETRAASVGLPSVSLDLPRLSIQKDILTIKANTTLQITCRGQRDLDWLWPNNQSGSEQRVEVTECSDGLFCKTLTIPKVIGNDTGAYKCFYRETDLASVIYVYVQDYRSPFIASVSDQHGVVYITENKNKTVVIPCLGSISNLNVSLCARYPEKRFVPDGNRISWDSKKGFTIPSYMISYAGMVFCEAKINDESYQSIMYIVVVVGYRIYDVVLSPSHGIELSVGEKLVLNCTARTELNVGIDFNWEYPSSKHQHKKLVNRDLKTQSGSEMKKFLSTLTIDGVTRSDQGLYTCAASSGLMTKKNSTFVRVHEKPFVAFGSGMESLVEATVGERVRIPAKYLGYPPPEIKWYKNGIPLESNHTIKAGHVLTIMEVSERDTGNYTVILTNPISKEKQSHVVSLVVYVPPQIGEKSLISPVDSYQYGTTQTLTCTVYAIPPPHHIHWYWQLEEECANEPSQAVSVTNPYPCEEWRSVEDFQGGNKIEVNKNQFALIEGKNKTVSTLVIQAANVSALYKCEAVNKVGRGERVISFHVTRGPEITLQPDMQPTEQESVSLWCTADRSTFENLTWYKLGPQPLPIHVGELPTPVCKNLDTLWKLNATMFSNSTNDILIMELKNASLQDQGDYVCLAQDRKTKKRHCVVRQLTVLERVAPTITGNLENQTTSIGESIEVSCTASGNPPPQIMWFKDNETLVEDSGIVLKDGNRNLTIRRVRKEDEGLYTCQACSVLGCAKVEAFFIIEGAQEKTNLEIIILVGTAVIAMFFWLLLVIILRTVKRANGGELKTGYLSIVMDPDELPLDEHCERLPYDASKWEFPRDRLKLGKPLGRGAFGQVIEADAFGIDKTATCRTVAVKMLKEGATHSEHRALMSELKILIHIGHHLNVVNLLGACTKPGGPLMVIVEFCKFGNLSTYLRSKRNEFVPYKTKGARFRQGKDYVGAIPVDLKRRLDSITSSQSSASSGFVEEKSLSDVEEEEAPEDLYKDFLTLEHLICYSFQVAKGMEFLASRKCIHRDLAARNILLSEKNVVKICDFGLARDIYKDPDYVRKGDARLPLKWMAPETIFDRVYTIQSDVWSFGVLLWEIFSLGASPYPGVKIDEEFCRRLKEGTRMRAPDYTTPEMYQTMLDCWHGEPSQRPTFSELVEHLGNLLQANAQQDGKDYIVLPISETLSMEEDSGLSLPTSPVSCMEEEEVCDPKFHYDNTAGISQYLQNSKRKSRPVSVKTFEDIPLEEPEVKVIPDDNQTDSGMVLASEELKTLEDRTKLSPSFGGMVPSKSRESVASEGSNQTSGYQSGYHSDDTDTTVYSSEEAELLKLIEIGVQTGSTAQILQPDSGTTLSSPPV
The test system of data set [6] is HUVEC. As to the kind of experiment: Antiinvasive activity in HUVEC assessed as inhibition of VEGF-induced cell invasion by crystal violet staining based matrigel invasion chamber assay. Type of data set: functional. Particulars: Homo sapiens.
Data set [7] deals with HUVEC. As to the kind of experiment: Down regulation of VE-cadherin expression in VEGF-stimulated HUVEC after 6 hrs by Western blot analysis. Type of data set: functional, cell-based. Particulars: Homo sapiens.
Data set [8] has as its target Vascular endothelial growth factor receptor 2 (Homo sapiens) (UniProt P35968). As to the kind of experiment: Inhibition of VEGFR2 phosphorylation in VEGF-stimulated HUVEC after 6 hrs by Western blot analysis. In kind it is cell-based.

`CCCc1cc(O[C@@H]2O[C@@H](C)[C@H](O)[C@@H](O)[C@H]2OC2O[C@H](CO)[C@@H](O)[C@H](O)[C@H]2NC(C)=O)cc2c1C(=O)c1c(O)cc(O)cc1C2=O` (some centres undefined): the inhibition result (in the data set on HUVEC [1]; in data set [5]) was “Active” throughout. The inhibition entry with HUVEC [2] is “Dose-dependent effect”. Also, the Activity entry with HUVEC [3] was “Non-Toxic”. In addition, the outcome in the data set on HUVEC [4] was Active.

Consider `CCCc1c(C(=O)O)c(O)cc2c1C(=O)c1c(O)cc(O)cc1C2=O`, for which the inhibition entry (in the data set on HUVEC [2]; with HUVEC [6]; in data set [8]) was “inactive” throughout. Also, the outcome with HUVEC [7] was inactive.

In the case of `CCCc1cc(O[C@@H]2O[C@@H](C)[C@H](O)[C@@H](O)[C@H]2O)cc2c1C(=O)c1c(O)cc(O)cc1C2=O`, the inhibition entry (with HUVEC [1]; in data set [5]) was “Active” throughout. Moreover, in the data set with HUVEC [2], the inhibition result is “Dose-dependent effect”. Besides, the Activity entry with HUVEC [3] was “Non-Toxic”. Further, the result in the data set with HUVEC [4] was Active.

Values taken from ChEMBL document CHEMBL4196206, “Aturanosides A and B, Glycosylated Anthraquinones with Antiangiogenic Activity from a Soil-Derived Streptomyces Species” (J Nat Prod, 2018).
